Our source for the MIC values is patent US7129198B1, “Use of benzotriazole UV absorbers” (Ciba Specialty Chemicals Corporation, priority 1999, dated 2006).

By MIC is commonly meant the lowest concentration that inhibits growth of the organism. Higher therefore signals a less susceptible organism.

What all share (experiment): MIC in microtitre plates
Type in all cases: cell-based

For experiment [1], the system named is Candida albicans ATCC 10259. Conditions: ATCC10259, 48 hours at 37° C., ≦20% growth. The procedure: (§1) Mycological slant agar for the preculture of moulds. The test substances are predissolved in dimethyl sulfoxide (DMSO) and tested in a dilution series of 1:2. The test organisms are cultured overnight in CASO bouillon and rinsed off with 10 ml of 0.85% sodium chloride solution (+0.1% TritonX-100). The test organisms are adjusted to an organism count of 1–5×10^6 CFU/ml with 0.85% sodium chloride solution. The test substances are prepipetted into microtitre plates in an amount of 8 μl per well. Previously diluted organism suspensions are diluted 1:100 in CASO bouillon and added to the test substances in an amount of 192 μl per well. The test batches are incubated for 48 hours at 37° C. After incubation, the growth is determined by reference to the turbidity of the test batches (optical density) at 620 nm in a microplate reader. The minimum inhibitory concentration (MIC value) is the concentration of substance at which (compared with the growth of the control) an appreciable inhibition of the growth (≦20% growth) of the test organisms is ascertained. One microtitre plate is used for each test organism and substance concentration. All substances are tested in duplicate.

Experiment [2] relates to Corynebacterium xerosis ATCC 373. Conditions: ATCC373, 48 hours at 37° C., ≦20% growth. The procedure:
as §1

Experiment [3] deals with Enterococcus hirae ATCC 10541. Conditions: ATCC10541, 48 hours at 37° C., ≦20% growth. The procedure:
as §1

For experiment [4], the system named is Epidermophyton floccosum DSM 10709. Conditions: DSM10709, 48 hours at 37° C., ≦20% growth. As to the method: as §1
Experiment [5] relates to Klebsiella pneumoniae ATCC 4352. Conditions: ATCC4352, 48 hours at 37° C., ≦20% growth. As to the method: as §1
For experiment [6], the system named is Micrococcus luteus ATCC 9341. Conditions: ATCC9341, 48 hours at 37° C., ≦20% growth. As to the method: as §1
The next experiment relates to P. ovale ATCC 14521. Conditions: Pityrosporum ovale, ATCC14521, 48 hours at 37° C., ≦20% growth. As to the method:
as §1

The test system of experiment [7] is S. epidermidis ATCC 12228. Conditions: Staphylococcus epidermidis, ATCC12228, 48 hours at 37° C., ≦20% growth. The procedure: as §1
Experiment [8] relates to Salmonella choleraesuis ATCC 9184. Conditions: Salmonella enterica, 48 hours at 37° C., ≦20% growth. As to the method:
as §1

Experiment [9] has as its system Streptococcus mutans ATCC 25175. Conditions: ATCC25175, 48 hours at 37° C., ≦20% growth. As to the method: as §1
Experiment [10] deals with Trichoderma longibrachiatum DSM 768. Conditions: DSM768, 48 hours at 37° C., ≦20% growth. The procedure:
as §1

In experiment [11] the test system is Trichophyton mentagrophytes ATCC 9533. Conditions: ATCC9533, 48 hours at 37° C., ≦20% growth. The procedure: as §1
In experiment [12] the test system is Trichophyton rubrum DSM 4167. Conditions: DSM4167, 48 hours at 37° C., ≦20% growth. The procedure: as §1

Regarding `CCCCCCCC[N+](CC)(CC)CCCNC(=O)CCc1cc(-n2nc3ccccc3n2)c(O)c(C(C)(C)C)c1.[Br-]` [compound of formula (108)], the minimal inhibitory concentration (MIC) in experiment [1] was 6.25 µg/mL; in [2], 3.12 µg/mL; in [3], 3.12 µg/mL; in experiment [4], 12.5 µg/mL; in [5] it was > 100 µg/mL; in experiment [6], 3.12 µg/mL. The minimum inhibitory concentration (MIC) against P. ovale ATCC 14521 was > 25 µg/mL; in experiment [7] it was 3.12 µg/mL; in experiment [8], > 100 µg/mL; in experiment [9], 3.12 µg/mL; in experiment [10] it was 50 µg/mL; in [11], 100 µg/mL. Moreover, the MIC in experiment [12] is 25 µg/mL.
